Structures are written as SMILES.

This test concerns the target HIV-1 RT wild-type enzyme (Human immunodeficiency virus type 1 group M subtype B (isolate HXB2) (HIV-1), UniProt P04585). Nature of the test: HIV-1 reverse transcriptase inhibitory activity (RT polymerase assay). It is filed as biochemical. The following applies: HIV-1 RT wild-type enzyme 83 pM; RNA-dependent DNA polymerase activity; read-out: IC50. The protocol: Determination of HIV-1 Reverse Transcriptase Inhibitory Activity
The heterodimeric nucleic acid substrate used in the HIV-1 RT polymerase reactions was generated by annealing the DNA primer, biotinylated pD500 (Sigma Aldrich, USA, 5′-biotin-ttg aaa tga ctg cgg tac ggc-3′), SEQ ID NO. 1 to the nucleotide RNA template t500 (derived from hepatitis C virus [HCV] sequence, IBA, Germany, 5′-[…]-3′), SEQ ID NO 2). […] The mixture was then preincubated on an orbital shaker for 30 min at room temperature in microtiter plates (Costar 3365, Corning, USA). A polymerization reaction was initiated by the addition of RNA template/pD500 DNA primer hybrid (16.6 nM final of RNA/DNA hybrid) and dNTPs (2 μM dATP, dGTP, dCTP and 66.6 nM Ru-dUTP (Meso Scale Discovery, USA)). Plate was sealed and incubated for 5-10 min at room temperature on an orbital shaker. Plate was then incubated for 90 min at 37° C. and reactions quenched with 60 μl quenching buffer (50 mM EDTA, 0.7% BSA, 0.7% Tween-20, 0.017% sodium azide in PBS). The resulting solution was incubated at room temperature for an additional 5 min and then 50 μL was transferred to pre-blocked Avidin plates (L15AA, Meso Scale Discovery). Each well of Avidin plate was blocked for 1 h at room temperature with 100 μL 5% BSA in PBS. Blocking solution was removed by tapping vigorously on filter paper to remove all excess liquid. Reaction on pre-blocked avidin plate proceeded for 60 min at room temperature and then contents removed by tapping vigorously on filter paper to remove all excess liquid. After washing plate 3 times with 150 μL 1×PBS and blotting dry between cycles, 150 μL 1× Read Buffer T (4× Read Buffer T, Meso Scale Discovery) was added and incubated for 5 min at room temperature before counting on a Sector Imager […] (Meso Scale Discovery). Titration curves and IC50 values were calculated using a four parameter logisitc fit according to standard procedures. Briefly, % Inhibition=100×((sample raw value)−(mean value of the low control or 0% inhibition))/((mean value of wells representing 100% inhbition)−(mean value of 0% inhbition)). In this assay, low control wells contain DMSO (0% inhbition) and 100% inhibition wells contain 1 μM efavirenz.
As for `N#Cc1cc(Cl)cc(Oc2c(C(F)(F)F)ncn(Cc3cc(-c4ccccc4F)c(=O)[nH]n3)c2=O)c1` [Example 25, 3-chloro-5-((1-((5-(2-fluorophenyl)-6-oxo-1,6-dihydropyridazin-3-yl)methyl)-6-oxo-4-(trifluoromethyl)-1,6-dihydropyrimidin-5-yl)oxy)benzonitrile], the IC50 (as a rule, the concentration at which inhibition is half-maximal) is 9 nM.
Next, `N#Cc1cc(Cl)cc(Oc2c(C(F)(F)F)ncn(Cc3cc(-c4cccc(F)c4)c(=O)[nH]n3)c2=O)c1` [Example 26, 3-chloro-5-((1-((5(3-fluorophenyl)-6-oxo-1,6-dihydropyridazin-3-yl)methyl)-6-oxo-4-(trifluoromethyl)-1,6-dihydropyrimidin-5-yl)oxy)benzonitrile]: 5 nM; `N#Cc1cc(Cl)cc(Oc2c(C(F)(F)F)ncn(Cc3cc(-c4cc(F)cc(Cl)c4)c(=O)[nH]n3)c2=O)c1` [Example 27, 3-chloro-5-((1-((5-(3-chloro-5-fluorophenyl)-6-oxo-1,6-dihydropyridazin-3-yl)methyl)-6-oxo-4-(trifluoromethyl)-1,6-dihydropyrimidin-5-yl)oxy)benzonitrile]: 14 nM; `N#Cc1cc(Cl)cc(Oc2c(C(F)(F)F)ncn(Cc3cc(-c4ccc(Cl)cc4)c(=O)[nH]n3)c2=O)c1` [Example 28, 3-chloro-5-((1-((5-(4-chlorophenyl)-6-oxo-1,6-dihydropyridazin-3-yl)methyl)-6-oxo-4-(trifluoromethyl)-1,6-dihydropyrimidin-5-yl)oxy)benzonitrile]: 5 nM.
Next, `N#Cc1cc(Cl)cc(Oc2c(C(F)(F)F)ncn(Cc3cc(-c4ccc(F)c(F)c4)c(=O)[nH]n3)c2=O)c1` [Example 29, 3-chloro-5-((1-((5-(3,4-difluorophenyl)-6-oxo-1,6-dihydropyridazin-3-yl)methyl)-6-oxo-4-(trifluoromethyl)-1,6-dihydropyrimidin-5-yl)oxy)benzonitrile]: 3 nM; `N#Cc1cc(Cl)cc(Oc2c(C(F)(F)F)ncn(Cc3cc(-c4ccc(OC(F)F)cc4)c(=O)[nH]n3)c2=O)c1` [Example 30, 3-chloro-5-((1-((5-(4-(difluoromethoxy)phenyl)-6-oxo-1,6-dihydropyridazin-3-yl)methyl)-6-oxo-4-(trifluoromethyl)-1,6-dihydropyrimidin-5-yl)oxy)benzonitrile]: 4 nM; `Cc1ccc(-c2cc(Cn3cnc(C(F)(F)F)c(Oc4cc(Cl)cc(C#N)c4)c3=O)n[nH]c2=O)cc1` [Example 31, 3-chloro-5-((6-oxo-1-((6-oxo-5-(p-tolyl)-1,6-dihydropyridazin-3-yl)methyl)-4-(trifluoromethyl)-1,6-dihydropyrimidin-5-yl)oxy)benzonitrile]: 5 nM.
In the case of `CC(C)Oc1ccc(-c2cc(Cn3cnc(C(F)(F)F)c(Oc4cc(Cl)cc(C#N)c4)c3=O)n[nH]c2=O)cc1F` [Example 32, 3-chloro-5-((1-((5-(3-fluoro-4-isopropoxyphenyl)-6-oxo-1,6-dihydropyridazin-3-yl)methyl)-6-oxo-4-(trifluoromethyl)-1,6-dihydropyrimidin-5-yl)oxy)benzonitrile] it was 13 nM.
Turning to `N#Cc1cc(Cl)cc(Oc2c(C(F)(F)F)ncn(Cc3cc(-c4cc(F)cc(F)c4)c(=O)[nH]n3)c2=O)c1` [Example 33, 3-chloro-5-((1-((5-(3,5-difluorophenyl)-6-oxo-1,6-dihydropyridazin-3-yl)methyl)-6-oxo-4-(trifluoromethyl)-1,6-dihydropyrimidin-5-yl)oxy)benzonitrile], the IC50 came to 7 nM.
Turning to `N#Cc1cc(Cl)cc(Oc2c(C(F)(F)F)ncn(Cc3cc(-c4ccc(F)c(Cl)c4)c(=O)[nH]n3)c2=O)c1` [Example 34, 3-chloro-5-((1-((5-(3-chloro-4-fluorophenyl)-6-oxo-1,6-dihydropyridazin-3-yl)methyl)-6-oxo-4-(trifluoromethyl)-1,6-dihydropyrimidin-5-yl)oxy)benzonitrile], the IC50 stood at 7 nM.
With `N#Cc1cc(Cl)cc(Oc2c(C(F)(F)F)ncn(Cc3cc(-c4ccc(F)cc4F)c(=O)[nH]n3)c2=O)c1` [Example 35, 3-chloro-5-((1-((5-(2,4-difluorophenyl)-6-oxo-1,6-dihydropyridazin-3-yl)methyl)-6-oxo-4-(trifluoromethyl)-1,6-dihydropyrimidin-5-yl)oxy)benzonitrile], the half-inhibitory concentration (IC50) was determined as 8 nM.
Next, `N#Cc1cc(Cl)cc(Oc2c(C(F)(F)F)ncn(Cc3cc(-c4cccc(Cl)c4)c(=O)[nH]n3)c2=O)c1` [Example 36, 3-chloro-5-((1-((5-(3-chlorophenyl)-6-oxo-1,6-dihydropyridazin-3-yl)methyl)-6-oxo-4-(trifluoromethyl)-1,6-dihydropyrimidin-5-yl)oxy)benzonitrile]: 4 nM; `Cc1cc(-c2cc(Cn3cnc(C(F)(F)F)c(Oc4cc(Cl)cc(C#N)c4)c3=O)n[nH]c2=O)ccc1F` [Example 37, 3-chloro-5-((1-((5-(4-fluoro-3-methylphenyl)-6-oxo-1,6-dihydropyridazin-3-yl)methyl)-6-oxo-4-(trifluoromethyl)-1,6-dihydropyrimidin-5-yl)oxy)benzonitrile]: 5 nM; `Cc1cccc(-c2cc(Cn3cnc(C(F)(F)F)c(Oc4cc(Cl)cc(C#N)c4)c3=O)n[nH]c2=O)c1F` [Example 38, 3-chloro-5-((1-((5-(2-fluoro-3-methylphenyl)-6-oxo-1,6-dihydropyridazin-3-yl)methyl)-6-oxo-4-(trifluoromethyl)-1,6-dihydropyrimidin-5-yl)oxy)benzonitrile]: 110 nM.
In the case of `Cc1ccc(F)c(-c2cc(Cn3cnc(C(F)(F)F)c(Oc4cc(Cl)cc(C#N)c4)c3=O)n[nH]c2=O)c1` [Example 39, 3-chloro-5-((1-((5-(2-fluoro-5-methylphenyl)-6-oxo-1,6-dihydropyridazin-3-yl)methyl)-6-oxo-4-(trifluoromethyl)-1,6-dihydropyrimidin-5-yl)oxy)benzonitrile] it was 10 nM; in that of `N#Cc1cc(Cl)cc(Oc2c(C(F)(F)F)ncn(Cc3cc(-c4ccc(F)cc4Cl)c(=O)[nH]n3)c2=O)c1` [Example 40, 3-chloro-5-((1-((5-(2-chloro-4-fluorophenyl)-6-oxo-1,6-dihydropyridazin-3-yl)methyl)-6-oxo-4-(trifluoromethyl)-1,6-dihydropyrimidin-5-yl)oxy)benzonitrile], 70 nM; in that of `N#Cc1cc(Cl)cc(Oc2c(C(F)(F)F)ncn(Cc3cc(-c4cccc(F)c4Cl)c(=O)[nH]n3)c2=O)c1` [Example 41, 3-chloro-5-((1-((5-(2-chloro-3-fluorophenyl)-6-oxo-1,6-dihydropyridazin-3-yl)methyl)-6-oxo-4-(trifluoromethyl)-1,6-dihydropyrimidin-5-yl)oxy)benzonitrile], 59 nM.
In the case of `Cc1ccc(-c2cc(Cn3cnc(C(F)(F)F)c(Oc4cc(Cl)cc(C#N)c4)c3=O)n[nH]c2=O)c(F)c1` [Example 42, 3-chloro-5-((1-((5-(2-fluoro-4-methylphenyl)-6-oxo-1,6-dihydropyridazin-3-yl)methyl)-6-oxo-4-(trifluoromethyl)-1,6-dihydropyrimidin-5-yl)oxy)benzonitrile] it was 7 nM.

Values taken from patent publication US9718819B2 (Merck Sharp & Dohme Corp., priority 2012, dated 2017).
